Patent publication US11357817B2, “Immunoproteasome inhibitor” (The Regents of the University of California, priority 2017, dated 2022)

Assays:
Pf20S = Pf20S (Plasmodium falciparum, UniProt A0A5K1K7U1+Q8IJT1); assay: Calculation of inhibition constants (inactivation kinetics), Pf20S; type: biochemical
Description: The rate of AMC release was calculated in the presence of serial dilution of each inhibitor. The rate of product formation were calculated at 30 min intervals for 4 hours, and normalized to activity DMSO control to calculate inactivation curves. Kobs values for each inhibitor concentration were calculated from inactivation curves, and inhibition constants KI and kinact were calculated by non-linear regression of Kobs and inhibitor concentration using GraphPad Prism 6 software.

[1] = test system: 20S Plasmodium proteasome (Pf20S) β1 subunit; assay: Proteasome activity assay, Pf20S β1 (z-LLE-AMC); type: biochemical, Plasmodium falciparum; settings: 450 nM compound; proteasome not named
Description: Asynchronous P. falciparum cultures were grown up to 4-5% parasitemia, in 300 mL of RPMI media at 5.0% hematocrit. […] The PBS was removed and lysis buffer (0.15% saponin in PBS) was added on ice in 10 pellet volumes. Upon lysis of red blood cells, indicated by a clear red supernatant, the lysed cultures were centrifuged at 3200×g for 12 minutes at 4° C. The supernatant was removed by aspiration and the cells were washed twice using chilled PBS in microcentrifuge tubes. The cell pellets were then incubated on ice for 1 hour with occasional vortexing in a buffer consisting of 20 mM Tris-HCl pH 7.5, 5 mM MgCl2, 1 mM DTT, 100 μM E-64 and 1 mM AEBSF. This sample was then subjected to 3 rounds of freezing (−80° C.) and thawing (37° C.) and centrifugation at 6000×g for 10 min. The supernatant containing soluble P. falciparum protein was quantified by the BCA method (Pierce).
P. falciparum proteasome was enriched by two-chromatographic steps reported previously (10). […] The AMC fluorophore release was monitored at Ex 340/Em 465 nm at 24° C. using a Synergy HTX multi-mode reader (Biotek). […] Proteins were eluted using 20 mM Tris-HCl pH 7.5, 100 mM NaCl, 10% glycerol and 1 mL fractions were collected, evaluated for protease activity and pooled. […]

[2] = test system: 20S Plasmodium proteasome (Pf20S) β5 subunit; assay: Proteasome activity assay, Pf20S β5 (suc-LLVY-AMC); type: biochemical, Plasmodium falciparum
Description: Asynchronous P. falciparum cultures were grown up to 4-5% parasitemia, in 300 mL of RPMI media at 5.0% hematocrit. Cultures were then transferred to 50 mL conical tubes, pelleted via centrifugation at 800 g for 5 min, and washed once with 1×PBS and pelleted again as above. The PBS was removed and lysis buffer (0.15% saponin in PBS) was added on ice in 10 pellet volumes. Upon lysis of red blood cells, indicated by a clear red supernatant, the lysed cultures were centrifuged at 3200×g for 12 minutes at 4° C. The supernatant was removed by aspiration and the cells were washed twice using chilled PBS in microcentrifuge tubes. The cell pellets were then incubated on ice for 1 hour with occasional vortexing in a buffer consisting of 20 mM Tris-HCl pH 7.5, 5 mM MgCl2, 1 mM DTT, 100 μM E-64 and 1 mM AEBSF. This sample was then subjected to 3 rounds of freezing (−80° C.) and thawing (37° C.) and centrifugation at 6000×g for 10 min. The supernatant containing soluble P. falciparum protein was quantified by the BCA method (Pierce).
P. falciparum proteasome was enriched by two-chromatographic steps reported previously (10). In brief, 10 mg of P. falciparum protein was concentrated to 1 mL using a 100 kDa centrifugal filter unit (Amicon) and loaded onto a 5 mL anion exchange HiTrap DEAE FF column (GE Healthcare). […] The AMC fluorophore release was monitored at Ex 340/Em 465 nm at 24° C. using a Synergy HTX multi-mode reader (Biotek). […] Proteins were eluted using 20 mM Tris-HCl pH 7.5, 100 mM NaCl, 10% glycerol and 1 mL fractions were collected, evaluated for protease activity and pooled.
To estimate the concentration of Pf20S in the final pooled sample, protein was denatured and loaded into a 4-12% Bis-Tris Plus gel (Thermo Fisher Scientific) beside 60 to 100 ng of human constitutive proteasome (Boston Biochem). […] For inhibition assays, inhibitor and substrate were added simultaneously to the enzyme and the rate of AMC release was determined from 60 to 120 minutes and compared to a DMSO control.

Sequence of Pf20S (A0A5K1K7U1 entry or part of it): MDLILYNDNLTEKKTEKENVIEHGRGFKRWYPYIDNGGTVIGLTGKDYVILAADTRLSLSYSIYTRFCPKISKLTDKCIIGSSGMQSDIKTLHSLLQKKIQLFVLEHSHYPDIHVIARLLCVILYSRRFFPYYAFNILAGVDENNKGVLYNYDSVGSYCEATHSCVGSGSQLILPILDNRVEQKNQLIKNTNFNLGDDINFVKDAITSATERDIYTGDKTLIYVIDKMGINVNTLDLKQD
Sequence of Pf20S (Q8IJT1 entry or part of it): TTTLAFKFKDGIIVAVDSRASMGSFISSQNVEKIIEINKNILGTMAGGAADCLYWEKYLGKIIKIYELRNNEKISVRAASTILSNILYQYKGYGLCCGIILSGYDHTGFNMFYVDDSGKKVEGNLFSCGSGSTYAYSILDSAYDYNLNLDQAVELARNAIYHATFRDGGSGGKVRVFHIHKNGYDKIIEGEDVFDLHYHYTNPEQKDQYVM

Question: With `CCCCCC(=O)N[C@@H](C(=O)N[C@@H](CCCC)C(=O)N[C@@H](CC(C)C)C(=O)[C@@]1(C)CO1)C(C)C` [Analog 18, (S)-2-((R)-2-hexanamido-3-methylbutanamido)-N—((S)-4-methyl-1-((R)-2-methyloxiran-2-yl)-1-oxopentan-2-yl)hexanamide] as the molecule, how does the Ki (Pf20S; Pf20S) read?
Answer: 372 nM

Question: What about the “reduction in potency to the Pf20S proteasome” value (Pf20S; kinact/Ki, 18 versus 1) of the same molecule?
Answer: 10 fold

Question: And the β1 activity reduced [1]?
Answer: 6%

Question: What about the “decrease in β5 activity” value ([2]; 450 nM compound, proteasome not named) of the same molecule?
Answer: 45%

Question: What about the “potency towards Pf20S compared with c20S” value ([2]; β5 activity, 50 nM compound) of the same molecule?
Answer: more potent towards Pf20S than c20S
